# Reference: patent US7893199B2, “Peptides having neutrophil-stimulating activity” (National University Corporation Gunma University, priority 2006, dated 2011)
# Where no end group is shown, it is not given here.
# How the values were obtained:
# [1] = system: HL-60 cells differentiated into the neutrophil-like cells; test: β-hexosaminidase-secreting activity of neutrophil-like differentiated HL-60 cells; format: cell-based, human; details: differentiated HL-60 cells; read-out: EC50, β-hexosaminidase-secreting activity
# Outline: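 HL-60 cells were differentiated with 500 μM db-cAMP for 3 days at 37 °C, then stimulated with peptide for 10 min in HBHS/0.1% BSA, pH 7.4, containing 5 μg/ml cytochalasin B and DNase I. Released β-hexosaminidase was read at 405 nm after p-nitrophenyl-N-acetylglucosaminide hydrolysis (pH 4.5, 37 °C, 1 h). Secretion is expressed relative to 10 μM fMLP, with total enzyme from 0.05% Triton X-100 lysis.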
# [2] = system: G protein in the differentiated HL-60 cell membrane fraction; test: G protein activation ability (GTP hydrolysis) in cell membrane fraction; format: biochemical, human
# Method: (4) Measurement of G Protein Activation Ability
# The cells were collected by centrifuging the suspension of the differentiated HL-60 cells (1,000 rpm, 5 minutes, 4° C.). After that, the following operation was repeated three times to wash the cells: ice-cooled PBS was added to the cells; the mixture was suspended by inversion; and the mixture was centrifuged (1,000 rpm, 5 minutes, 4° C.). Then, the precipitated cells were suspended in a buffer for preparing a cell membrane fraction (20 mM Tris-HCl, 250 mM sucrose, 1.5 mM MgCl2, 3 mM benzamidine hydrochloride monohydrate, 1 μM leupeptin, 1 μM PMSF, 2 μg/ml trypsin inhibitor, pH 7.5) and a cell homogenate was prepared using nitrogen pressing-depressing type cell homogenizing apparatus (nitrogen pressure: 350 psi). After that, the resultant was ultracentrifuged (20,000 g, 4° C., 30 minutes) to remove the supernatant, and the precipitate was suspended in a membrane fraction buffer (20 mM Tris-HCl, 1 mM EDTA, 1 mM DTT, 77.5 mTIU/ml aprotinin, pH 7.5) and used as a cell membrane fraction. After dispensed, the cell membrane fraction was stored at −80° C. The activity of the G protein was quantified using the activity to hydrolyze GTP to GDP as an index. […] The mixture was centrifuged (15,000 rpm, 1 minute, 4° C.), and the radioactivity of the supernatant was measured.
sequence,measurement,setting,value
MLWNLLALHQIGQRTISTASHRH [No. 019],EC50,[1],0.2 µM
same,activation of G protein,[2],activated
